Counter-ions that a name gives are not always drawn.
Assays:
male C57BL/6J mice = experiment: Mouse oral glucose tolerance test; assay type: in vivo; conditions: oGTT in fasted mice; oral administration at -30 min, glucose 2 g/kg at time 0; plasma glucose AUC vs vehicle; dose not given
Experimental: Mouse Oral Glucose Tolerance Test
24 male C57BL/6J mice (8-10 weeks old, average weight 28 g) were randomized into 4 groups (1 mouse/cage) of 6 mice per group based on fed plasma glucose and body weight. Prior to initiating the study, mice were fasted overnight and the next morning they were weighed and placed in the experimental lab. After 30 min in the environment, the mice were bled via tail tip at −30 min and immediately given their first oral administration of vehicle (0.5% Methocel, 0.1% Tween 80 in water) or compound solutions (5 ml/kg). At time 0 the mice were bled and given 50% glucose (2 g/kg) to initiate the oral glucose tolerance test (oGTT). The mice were bled 30, 60 and 120 min after the glucose load. Blood samples were drawn into potassium EDTA, placed on ice during the study and subsequently centrifuged for 10 min at 3000 rpm at 4° C. Plasma samples were diluted 11-fold for glucose analysis in the Cobas Mira System (Roche Diagnostics). Area under the curve was calculated from the plasma glucose time course data using the trapezoid rule with fasting plasma glucose as the baseline (GraphPad Prism Software). The statistical significance of the changes in the glucose AUCs resulting from the different treatments was determined by one-way ANOVA followed by Dunnett's test using the vehicle group as the control (JMP software, release 5.1.2).

human GPR119 = biological target: T1, human GPR119 (Homo sapiens, UniProt Q8TDV5); experiment: Human Tet-inducible cAMP assay; assay type: cell-based; conditions: Flp-In-T-REx 293 tetracycline inducible cells expressing GPR119; cAMP by Hit Hunter cAMP kit; 1 hour at 37° C.; read-out: hGPR119 EC50
T1 construct: expressed in transfected cells; host or cells: Flp-In-T-REx 293 (tetracycline-inducible)
T1 sequence (Q8TDV5 1-335): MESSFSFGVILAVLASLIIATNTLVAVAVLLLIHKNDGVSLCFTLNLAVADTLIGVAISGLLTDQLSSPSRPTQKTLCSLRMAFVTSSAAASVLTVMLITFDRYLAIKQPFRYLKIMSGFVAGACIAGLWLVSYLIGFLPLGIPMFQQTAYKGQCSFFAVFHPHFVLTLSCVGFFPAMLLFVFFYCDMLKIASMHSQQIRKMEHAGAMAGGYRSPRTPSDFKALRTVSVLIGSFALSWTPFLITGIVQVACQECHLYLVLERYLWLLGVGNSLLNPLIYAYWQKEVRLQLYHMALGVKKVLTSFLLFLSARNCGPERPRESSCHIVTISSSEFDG
Experimental: The in vitro modulation of recombinant human GPR119 was determined as follows.
Human Tet-Inducible cAMP Assay
Cell lines expressing GPR119 are generated using the Flp-In-T-REx 293 tetracycline inducible gene expression system are cultured in culture medium comprising the following components: DMEM#11965, 10% FBS, 2 mM L-glutamine, 200 ug/ml Hygromycin B, and 15 ug/ml blasticidin.
For cAMP assays, cells are plated on 96 well plates (e.g., BD Falcon: REF 353948, black side, clear bottom, TC surface) at a density of about 4.5×10^4 cells per well in growth medium containing 1.0 ug/ml tetracycline (1.0 mg/ml stock). The cells are then incubated for 48 hours at 37° C.
Following the incubation, the growth medium is removed from the wells and the wells rinsed (once) with the assay buffer included in the Hit Hunter cAMP kit (100 μl/well). Following the wash, 20 μl of assay buffer is added to each well, followed by addition of 10 μl of a 3× concentration compound working solution. The solution is then mixed. The final concentration range of compound is from about 10^−5M to about 10^−11M. The reagents are then incubated at 37° C. at 5% CO2 for 1 hour.
The manufacturer's protocol may be followed for cAMP determination. The Hit Hunter cAMP kit protocol is outlined for the HIT-T15 cAMP assays described above.
Compounds of the present invention were tested in the Human Tet-inducible cAMP assay described immediately above and the results shown in Table 1 below were obtained.

| Compound | EC50 (human GPR119) [nM] | Glucose Lowering (%) (male C57BL/6J mice) |
| --- | --- | --- |
| CC(C)OC(=O)N1CCC(Oc2ccn(-c3ccc(S(C)(=O)=O)cc3)c(=O)c2)CC1 [Example 3, isopropyl 4-(1-(4-(methylsulfonyl)phenyl)-2-oxo-1,2-dihydropyridin-4-yloxy)piperidine-1-carboxylate] | – | −29 |
| CCCc1cnc(N2CCC(Oc3cc(=O)n(-c4ccc(C#N)c(F)c4)cc3Cl)CC2)nc1 [Example 227, 4-(5-chloro-2-oxo-4-(1-(5-propylpyrimidin-2-yl)piperidin-4-yloxy)pyridin-1(2H)-yl)-2-fluorobenzonitrile] | 1 | – |
| N#Cc1ccc(-n2cc(Cl)c(OC3CCN(c4ncc(C5CC5)cn4)CC3)cc2=O)cc1F [Example 229, 4-(5-chloro-4-(1-(5-cyclopropylpyrimidin-2-yl)piperidin-4-yloxy)-2-oxopyridin-1(2H)-yl)-2-fluorobenzonitrile] | 4 | – |
| N#Cc1ccc(-n2cc(Cl)c(OC3CCN(c4ncc(CCC(F)(F)F)cn4)CC3)cc2=O)cc1F [Example 263, 4-(5-chloro-2-oxo-4-(1-(5-(3,3,3-trifluoropropyl)pyrimidin-2-yl)piperidin-4-yloxy)pyridin-1(2H)-yl)-2-fluorobenzonitrile] | 4 | – |
| CC(C)(C)OC(=O)N1CCC(Oc2cc(=O)n(-c3ccc(C#N)c(F)c3)cc2Cl)CC1 [Example 267, tert-butyl 4-(5-chloro-1-(4-cyano-3-fluorophenyl)-2-oxo-1,2-dihydropyridin-4-yloxy)piperidine-1-carboxylate] | 4 | – |

Now from value to compound, other results behind:

| EC50 (human GPR119) [nM] | Compound | Glucose Lowering (%) (male C57BL/6J mice) |
| --- | --- | --- |
| 6 | CCCc1cnc(N2CCC(Oc3cc(=O)n(-c4ccc(S(C)(=O)=O)c(F)c4)cc3Cl)CC2)nc1 [Example 224, 5-chloro-1-(3-fluoro-4-(methylsulfonyl)phenyl)-4-(1-(5-propylpyrimidin-2-yl)piperidin-4-yloxy)pyridin-2(1H)-one, TFA salt] | – |
| 9 | CCCc1cnc(N2CCC(Oc3ccn(-c4ccc(NC(=O)C(C)(C)C)c(F)c4)c(=O)c3)CC2)nc1 [Example 239, N-(2-fluoro-4-(2-oxo-4-(1-(5-propylpyrimidin-2-yl)piperidin-4-yloxy)pyridin-1(2H)-yl)phenyl)pivalamide] | – |
| 9 | CS(=O)(=O)c1ccc(-n2ccc(OC3CCN(c4ncc(C5CCC5)cn4)CC3)cc2=O)c(F)c1 [Example 243, 4-(1-(5-cyclobutylpyrimidin-2-yl)piperidin-4-yloxy)-1-(2-fluoro-4-(methylsulfonyl)phenyl)pyridin-2(1H)-one] | – |
| 257 | CCCc1cnc(N2CCCC(Oc3ccn(-c4ccc(S(C)(=O)=O)cc4)c(=O)c3)CC2)nc1 (stereo not shown) [Example 261, 1-(4-(methylsulfonyl)phenyl)-4-(1-(5-propylpyrimidin-2-yl)azepan-4-yloxy)pyridin-2(1H)-one] | – |
| 4 | N#Cc1ccc(-n2cc(Cl)c(OC3CCN(c4ncc(C5CC5)cn4)CC3)cc2=O)c(F)c1 [Example 265, 4-(5-chloro-4-(1-(5-cyclopropylpyrimidin-2-yl)piperidin-4-yloxy)-2-oxopyridin-1(2H)-yl)-3-fluorobenzonitrile] | – |
